Test results published in article PMC5587797 (Nucleic Acids Research, 2017).

How the values were obtained:
hTRMT10A [1] = target: hTRMT10A (Homo sapiens, UniProt Q8TBZ6); test: biochemical
hTRMT10A [2] = target: hTRMT10A (Homo sapiens, UniProt Q8TBZ6, D210N); test: biochemical
Chain of hTRMT10A (Homo sapiens, UniProt Q8TBZ6, D210N) (Q8TBZ6 whole entry D210N): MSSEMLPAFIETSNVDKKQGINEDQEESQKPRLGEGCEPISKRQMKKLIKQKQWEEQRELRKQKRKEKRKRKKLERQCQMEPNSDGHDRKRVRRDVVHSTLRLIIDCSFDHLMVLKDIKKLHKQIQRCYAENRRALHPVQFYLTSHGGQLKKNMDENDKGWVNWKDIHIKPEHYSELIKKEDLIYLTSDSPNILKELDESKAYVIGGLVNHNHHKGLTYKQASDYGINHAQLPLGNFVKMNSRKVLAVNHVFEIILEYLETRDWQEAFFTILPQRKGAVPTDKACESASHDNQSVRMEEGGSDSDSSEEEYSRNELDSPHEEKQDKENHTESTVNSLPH

Chain of hTRMT10A (Homo sapiens, UniProt Q8TBZ6) (Q8TBZ6 whole entry): as the sequence (Q8TBZ6 whole entry D210N) above, with N210D counted along it

- Kd (hTRMT10A [1]): 17.7 ± 4 µM
- Kd (hTRMT10A [2]): 60.6 ± 10.3 µM
SMILES: C[S+](CC[C@H](N)C(=O)O)C[C@H]1O[C@@H](n2cnc3c(N)ncnc32)[C@H](O)[C@@H]1O (some centres unmarked) [S-adenosyl methionine]
